Positions of bridges follow the written chain, without caps; N, C: chain ends. Non-standard residues stand in square brackets, D forms with d. Residues, ends and D or L forms follow the SMILES beside them. *: point of attachment. Malonyl(2,2-Me2,histaminyl) = CC(C)(C(=O)NCCc1cnc[nH]1)C(=O)*; Ala(1H-tetrazol-5-yl) = N[C@@H](Cc1nnn[nH]1)C(=O)O; αMeL = CC(C)C[C@](C)(N)C(=O)O; Nle = CCCC[C@H](N)C(=O)O
Tests used:
human GLP2 receptor = target: T1, human GLP2 receptor (Homo sapiens, UniProt O95838); experiment: cAMP accumulation assay, functional agonism of human GLP2 receptor; type: cell-based; settings: HEK cells infected with human GLP2 receptor BacMam virus, HTRF cAMP; for Emax: HEK293, read-out: Human GLP-2R agonist cAMP Emax; for EC50: read-out: Human GLP-2R agonist cAMP pEC50 (converted)
T1 construct: expressed in transfected cells; host or cells: HEK cells, BacMam virus transduction
T1 sequence (O95838 1-553): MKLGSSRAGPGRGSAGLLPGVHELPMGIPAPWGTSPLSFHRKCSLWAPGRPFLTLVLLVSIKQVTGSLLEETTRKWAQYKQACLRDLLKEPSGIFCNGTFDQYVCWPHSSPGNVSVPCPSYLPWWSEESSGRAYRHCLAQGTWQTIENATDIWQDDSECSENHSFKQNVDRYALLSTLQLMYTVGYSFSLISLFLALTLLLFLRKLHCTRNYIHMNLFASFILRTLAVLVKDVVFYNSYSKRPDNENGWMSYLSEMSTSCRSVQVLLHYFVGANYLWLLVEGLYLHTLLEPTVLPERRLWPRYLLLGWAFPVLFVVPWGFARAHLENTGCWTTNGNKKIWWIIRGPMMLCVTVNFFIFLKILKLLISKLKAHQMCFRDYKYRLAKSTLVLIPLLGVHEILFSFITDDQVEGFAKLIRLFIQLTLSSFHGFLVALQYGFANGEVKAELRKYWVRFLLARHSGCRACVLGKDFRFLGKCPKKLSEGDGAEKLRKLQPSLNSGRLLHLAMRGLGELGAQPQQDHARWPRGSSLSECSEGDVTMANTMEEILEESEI
Summary of the method: (§1)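 Agonist-driven cAMP production was quantified by homogeneous time-resolved fluorescence. Receptor expression in HEK cells came from a 24-hour BacMam infection, and cells were frozen ahead of the assay. Incubation lasted 45 min at 37° C in HBSS supplemented with 0.5 mM IBMX.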

human GLP1 receptor = target: T2, human GLP1 receptor (Homo sapiens, UniProt P43220); experiment: cAMP accumulation assay, functional agonism of human GLP1 receptor; type: cell-based; settings: HEK cells infected with human GLP1 receptor BacMam virus, HTRF cAMP; for Emax: HEK293, read-out: Human GLP-1R agonist cAMP Emax; for EC50: read-out: Human GLP-1R agonist cAMP pEC50 (converted)
T2 construct: expressed in transfected cells; host or cells: HEK cells, BacMam virus transduction
Summary of the method: as §1

T2 sequence (P43220 24-463): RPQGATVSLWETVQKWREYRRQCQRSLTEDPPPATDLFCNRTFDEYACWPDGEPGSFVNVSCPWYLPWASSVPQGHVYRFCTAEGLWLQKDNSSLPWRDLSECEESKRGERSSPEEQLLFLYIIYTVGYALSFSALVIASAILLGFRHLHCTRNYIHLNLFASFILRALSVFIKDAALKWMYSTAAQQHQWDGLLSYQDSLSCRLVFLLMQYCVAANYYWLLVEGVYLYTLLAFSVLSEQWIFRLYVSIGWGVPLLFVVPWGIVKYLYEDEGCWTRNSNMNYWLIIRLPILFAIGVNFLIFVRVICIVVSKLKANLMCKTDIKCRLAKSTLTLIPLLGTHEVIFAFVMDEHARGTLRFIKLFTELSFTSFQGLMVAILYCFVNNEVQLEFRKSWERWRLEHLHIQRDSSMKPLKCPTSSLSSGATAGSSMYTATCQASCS

| Emax (human GLP2 receptor) | EC50 (human GLP2 receptor) | Emax (human GLP1 receptor) | EC50 (human GLP1 receptor) | SMILES |
| --- | --- | --- | --- | --- |
| 95% | 0.501 nM | 83.7% | 6.31 nM | CCCC[C@H](NC(=O)[C@H](CCC(=O)O)NC(=O)[C@@H]1CC(=O)NCCCC[C@H](NC(=O)[C@H](CCC(N)=O)NC(=O)C(C)(C)C(=O)NCCc2c[nH]cn2)C(=O)N[C@@H](CO)C(=O)N[C@@H](Cc2ccccc2)C(=O)N[C@@H](CO)C(=O)N1)C(=O)N[C@H](Cc1ccccc1)C(=O)N[C@H](C(=O)N[C@@](C)(CC(C)C)C(=O)N[C@@H](CC(C)C)C(=O)N[C@@H](CC(=O)O)C(=O)N[C@H]1CCC(=O)NCCCC[C@@H](C(=O)N[C@@H](CC(=O)O)C(=O)N[C@@H](Cc2ccccc2)C(=O)N[C@H](C(=O)N[C@H]2CCC(=O)NCCCC[C@@H](C(=O)N[C@H]3CCC(=O)NCCCC[C@@H](C(N)=O)NC(=O)[C@H]([C@@H](C)O)NC(=O)[C@H]([C@@H](C)CC)NC(=O)[C@H](CCCCN)NC3=O)NC(=O)[C@H]([C@@H](C)CC)NC(=O)[C@H](CC(C)C)NC(=O)[C@H](Cc3c[nH]c4ccccc34)NC2=O)[C@@H](C)CC)NC(=O)[C@H](C)NC(=O)[C@H](C)NC(=O)[C@H](CCCCN)NC1=O)[C@@H](C)O [Example 69] ({Malonyl(2,2-Me2,histaminyl)}-QKSFSDE[Nle][dF]T[αMeL]LDEKAAKDFIEWLIKEKITK-NH2; lactam 2-6, 14-18, 22-26, 27-31 (inferred); C-terminus assumed) |
| 99.9% | 0.2 nM | 64.1% | 3.98 nM | CCCC[C@@H]1NC(=O)[C@H](CCC(=O)O)NC(=O)[C@H](CC(=O)O)NC(=O)[C@@H](NC(=O)[C@H](Cc2ccccc2)NC(=O)[C@H](CO)NC(=O)CNC(=O)[C@H](Cc2nn[nH]n2)NC(=O)C(C)(C)C(=O)NCCc2c[nH]cn2)CCC(=O)NCCCC[C@@H](C(=O)N[C@H]2CCC(=O)NCCCC[C@@H](C(=O)N[C@H]3CCC(=O)NCCCC[C@@H](C(=O)N[C@@H](CC(=O)O)C(=O)N[C@@H](Cc4ccccc4)C(=O)N[C@H](C(=O)N[C@H]4CCC(=O)NCCCC[C@@H](C(=O)N[C@H]5CCCCNC(=O)CC[C@@H](C(N)=O)NC(=O)[C@H]([C@@H](C)O)NC(=O)[C@H]([C@@H](C)CC)NC(=O)[C@H](CCCCN)NC5=O)NC(=O)[C@H]([C@@H](C)CC)NC(=O)[C@H](CC(C)C)NC(=O)[C@H](Cc5c[nH]c6ccccc56)NC4=O)[C@@H](C)CC)NC(=O)[C@H](C)NC(=O)[C@H](C)NC3=O)NC(=O)[C@H](CC(=O)O)NC(=O)[C@H](CC(C)C)NC(=O)[C@H]([C@@H](C)CC)NC2=O)NC1=O [Example 80] |
| 91.6% | 0.631 nM | 56.1% | 3.16 nM | CCCC[C@@H]1NC(=O)[C@H](CCC(=O)O)NC(=O)[C@H](CC(=O)O)NC(=O)[C@@H](NC(=O)[C@H](Cc2ccccc2)NC(=O)[C@H](CO)NC(=O)CNC(=O)[C@H](Cc2nn[nH]n2)NC(=O)C(C)(C)C(=O)NCCc2c[nH]cn2)CCC(=O)NCCCC[C@@H](C(=O)N[C@H]2CCC(=O)NCCCC[C@@H](C(=O)N[C@H]3CCCCNC(=O)C[C@@H](C(=O)N[C@@H](Cc4ccccc4)C(=O)N[C@H](C(=O)N[C@H]4CCC(=O)NCCCC[C@@H](C(=O)N[C@H]5CCCCNC(=O)CC[C@@H](C(N)=O)NC(=O)[C@H]([C@@H](C)O)NC(=O)[C@H]([C@@H](C)CC)NC(=O)[C@H](CCCCN)NC5=O)NC(=O)[C@H]([C@@H](C)CC)NC(=O)[C@H](CC(C)C)NC(=O)[C@H](Cc5c[nH]c6ccccc56)NC4=O)[C@@H](C)CC)NC(=O)[C@H](CCCCN)NC(=O)[C@H](C)NC(=O)[C@H](C)NC3=O)NC(=O)[C@H](CC(=O)O)NC(=O)[C@H](CC(C)C)NC(=O)[C@H]([C@@H](C)CC)NC2=O)NC1=O [Example 81] ({Malonyl(2,2-Me2,histaminyl)}-[Ala(1H-tetrazol-5-yl)]GSFEDE[Nle]KEILDKKAAKDFIEWLIKKKITE-NH2; lactam 5-9, 10-14, 15-19, 22-26, 27-31; C-terminus assumed) |

Reference: US20240270809A1, “ORAL GLP RECEPTOR AGONISTS” (priority 2020, published 2024)
